Here are results for 20 molecules from ChEMBL document CHEMBL1123649, “Congener derivatives and conjugates of histamine: synthesis and tissue and receptor selectivity of the derivatives” (J Med Chem, 1987).

Experiment [1] concerns the target Histamine H1 receptor (Homo sapiens) (UniProt P35367). In words: Effect on peripheral vasculature of the rabbit as percentage change in contractility. Type of experiment: functional, tissue-based. To be noted: Oryctolagus cuniculus, target entry is the homologue from another species.
In experiment [2] the target is Histamine H2 receptor (Cavia porcellus) (UniProt P47747). In words: Relative potency in guinea pig myocardium (GPM) by adenylate cyclase stimulation assay, H2 receptor response. Type of experiment: functional, tissue-based.
Sequence of Histamine H2 receptor (Cavia porcellus) (P47747 whole entry): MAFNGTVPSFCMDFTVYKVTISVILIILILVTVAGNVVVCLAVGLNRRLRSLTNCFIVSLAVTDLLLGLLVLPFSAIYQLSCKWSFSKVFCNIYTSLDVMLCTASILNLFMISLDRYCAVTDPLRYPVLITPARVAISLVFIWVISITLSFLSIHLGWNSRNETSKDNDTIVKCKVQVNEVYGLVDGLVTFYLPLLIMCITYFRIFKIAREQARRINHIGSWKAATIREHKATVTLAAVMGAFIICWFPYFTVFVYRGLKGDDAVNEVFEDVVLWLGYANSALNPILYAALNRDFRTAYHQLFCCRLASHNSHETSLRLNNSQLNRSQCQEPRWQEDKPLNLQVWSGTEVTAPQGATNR
The target in experiment [3] is Histamine H2 receptor (Mus musculus) (UniProt P97292). In words: Relative potency by cAMP assay in natural suppressor cells. Type of experiment: functional, cell-based.
Sequence of Histamine H2 receptor (Mus musculus) (P97292 whole entry): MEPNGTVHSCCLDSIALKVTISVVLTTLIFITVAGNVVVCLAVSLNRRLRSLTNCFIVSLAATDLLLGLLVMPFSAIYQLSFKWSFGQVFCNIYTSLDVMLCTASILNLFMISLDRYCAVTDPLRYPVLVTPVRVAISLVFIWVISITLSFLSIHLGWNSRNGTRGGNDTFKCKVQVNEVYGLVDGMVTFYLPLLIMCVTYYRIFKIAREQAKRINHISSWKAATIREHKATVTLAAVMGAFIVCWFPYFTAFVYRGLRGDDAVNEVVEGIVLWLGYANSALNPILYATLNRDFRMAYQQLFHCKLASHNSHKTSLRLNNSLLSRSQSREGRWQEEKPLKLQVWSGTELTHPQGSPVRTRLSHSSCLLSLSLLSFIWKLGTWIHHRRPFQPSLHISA

SMILES strings stand for the structures.

Sequence of Histamine H1 receptor (Homo sapiens) (P35367 whole entry): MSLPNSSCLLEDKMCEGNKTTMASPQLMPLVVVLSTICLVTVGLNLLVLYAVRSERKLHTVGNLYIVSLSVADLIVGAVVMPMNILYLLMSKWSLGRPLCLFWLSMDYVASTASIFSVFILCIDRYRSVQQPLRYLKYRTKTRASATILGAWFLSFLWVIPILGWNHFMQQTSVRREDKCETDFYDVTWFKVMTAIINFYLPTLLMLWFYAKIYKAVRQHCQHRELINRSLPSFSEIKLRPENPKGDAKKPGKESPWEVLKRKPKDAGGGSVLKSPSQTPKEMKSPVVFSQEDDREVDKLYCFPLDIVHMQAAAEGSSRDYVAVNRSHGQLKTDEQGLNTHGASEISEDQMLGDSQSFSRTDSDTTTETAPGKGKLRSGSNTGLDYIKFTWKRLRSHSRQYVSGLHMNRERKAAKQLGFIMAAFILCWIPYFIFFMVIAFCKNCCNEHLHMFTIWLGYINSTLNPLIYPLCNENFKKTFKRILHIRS

Regarding `Cc1ccc(NC(=O)CCCCNCCc2c[nH]cn2)cc1`, the Change in experiment [1] worked out at 0%. For the same molecule, the Relative potency worked out at 0.09 in experiment [2] and 2 in experiment [3].
`Cc1ccc(NC(=O)CCCCCC(C)NCCc2c[nH]cn2)cc1` (stereo not given): the Change in experiment [1] is 0%. Further, the Relative potency in experiment [2] is 0.02; in experiment [3], 2.
Regarding `CC(CCC(=O)Nc1ccc(C(F)(F)F)cc1)NCCc1c[nH]cn1` (stereo not given), the Change in experiment [1] stood at 0%. The same molecule registered a Relative potency in experiment [3] of 0.
Consider `NCCc1c[nH]cn1`, for which the Change in experiment [1] stood at 284%. The Relative potency in experiment [2] and in experiment [3] was 1 each time.
In experiment [1], `CC(CCCCC(=O)Nc1ccccc1C(F)(F)F)NCCc1c[nH]cn1` (stereo not given) had a Change of 0%. Also, the Relative potency in experiment [2] and in experiment [3] was 0 in each case.
The molecule `CCCCNC(=O)CCCCC(C)NCCc1c[nH]cn1` (stereo not given) showed a Change in experiment [1] of 0%. The Relative potency was 0.01 in experiment [2] and 0 in experiment [3].
For the molecule `Cc1ccc(NC(=O)CCCCC(C)NCCc2c[nH]cn2)cc1` (stereo not given), the Change in experiment [1] was found to be 0%. The Relative potency stood at 0.07 in experiment [2] and 3 in experiment [3].
With `CC(CCCCC(=O)Nc1ccc(C(F)(F)F)cc1)NCCc1c[nH]cn1` (stereo not given), the Relative potency in experiment [2] was 0; in experiment [3], 40000.
In experiment [1], `Cc1ccc(NC(=O)CC(C)NCCc2c[nH]cn2)cc1` (stereo not given) returned a Change of 0%. In experiment [3], the Relative potency is 0.
In experiment [1], `Cc1ccc(NC(=O)CCCC(C)NCCc2c[nH]cn2)cc1` (stereo not given) returned a Change of 90%. Moreover, the Relative potency in experiment [2] is 0.01; in experiment [3] it was 4000.
Take `CNC(=O)CNC(=O)C(Cc1ccccc1)N(NC(=O)CCC(C)NCCc1c[nH]cn1)C(=O)OC(C)(C)C` (stereo not given): the Change in experiment [1] turned out to be 0%. Also, the Relative potency in experiment [2] and in experiment [3] was 0 in each case.
Turning to `CC(CCCC(=O)Nc1ccc(C(F)(F)F)cc1)NCCc1c[nH]cn1` (stereo not given), the Change in experiment [1] stood at 0%. Moreover, the Relative potency in experiment [2] and in experiment [3] was 0 each time.
`Cc1ccc(NC(=O)CCC(C)NCCc2c[nH]cn2)cc1` (stereo not given): in experiment [1], the Change turned out to be 0%. In experiment [3], this molecule registered a Relative potency of 0.
The molecule `CCCCCC(C)NCCc1c[nH]cn1` (stereo not given) gave a Change in experiment [1] of 0%. For the same molecule, the Relative potency in experiment [2] and in experiment [3] was 0 each time.
In the case of `CC(CC(=O)Nc1ccc(C(F)(F)F)cc1)NCCc1c[nH]cn1` (stereo not given), the Change in experiment [1] came to 0%. The molecule also showed a Relative potency in experiment [3] of 0.
In experiment [1], `CCCCCCNCCc1c[nH]cn1` had a Change of 93%. Further, the Relative potency in experiment [2] was 0; in experiment [3], 5.
In experiment [1], `CCCCCC(=O)NCCc1c[nH]cn1` yielded a Change of 0%. Besides, the Relative potency in experiment [2] and in experiment [3] was 0 each time.
Take `CNC(=O)CNC(=O)C(Cc1ccccc1)N(NC(=O)CCCCC(C)NCCc1c[nH]cn1)C(=O)OC(C)(C)C` (stereo not given): in experiment [1], the Change came out at 0%. The Relative potency in experiment [2] is 0.0007; in experiment [3], 0.
For `Cc1ccc(NC(=O)CCCC(=O)NCCc2c[nH]cn2)cc1` the same measures were 0%, 0 and 4.4.
For `CNC(=O)CNC(=O)C(Cc1ccccc1)N(NC(=O)CCCC(C)NCCc1c[nH]cn1)C(=O)OC(C)(C)C` (stereo not given) the same measures were 0%, 0 and 0.
